US5250695A, “Use of specific counteranions to modify the solubility of tetrazolium salts” (Miles Inc., priority 1992, dated 1993)

What was measured:
[1] = Solubility testing of tetrazolium salts in methanol and water (Table I); conditions: for solubility in methanol (in words) / solubility in water (in words): discussion of Table I
[2] = cited from earlier work
[3] = Impregnation of zwitterionic nylon fabric with tetrazolium salt and ATP; HPLC of methanol extract, extraction into aqueous impregnation solution (Example II); conditions: 1 liter remaining after aqueous ATP impregnation
Excerpt: The solution also contained some formazan which was not quantified.
4 L×0.08 moles/L=0.32 moles of tetrazolium salt impregnated into the membrane during first treatment.
1 L×0.006 moles/L=0.006 moles extracted during aqueous impregnation.

[4] = listed as DCT tetrafluoroborate

| SMILES | Solubility, Methanol [1] | Solubility, Water [1] | other results |
| --- | --- | --- | --- |
| COc1cc(-[n+]2nc(-c3ccc4c(c3)OCO4)nn2-c2nc(C(F)F)c(Cl)s2)cc(OC)c1OC [DCT Br^-, 2-(4-difluoromethyl-5-chlorothiazol-2-yl)-3-(3,4,5-trimethoxyphenyl)-5-(3,4-methylenedioxyphenyl) tetrazolium] | 10 m mol L | < 1 m mol L | solubility in methanol (in words) ([1]; listed as DCT bromide): only marginally soluble; solubility in water (in words) ([1]; listed as DCT bromide): only marginally soluble |
| COc1ccccc1-[n+]1nc(-c2ccc3c(c2)OCO3)nn1-c1nc(C(F)F)c(Cl)s1 [DCMT PrSO3^-, 2-(4-difluoromethyl-5-chlorothiazol-2-yl)-3-(2 methoxyphenyl)-5-(3,4-methylenedioxyphenyl) tetrazolium] | > 760 m mol L | 23 m mol L |  |
| O=[N+]([O-])c1ccc(-n2nc(-c3ccccc3)n[n+]2-c2ccc(I)cc2)cc1 [INT MeSO3^-, 2-(4-iodophenyl)-3-(4-nitrophenyl)-5-phenyl tetrazolium] |  | 35 m mol L |  |
| O=[N+]([O-])c1ccc(-n2nc(-c3ccccc3)n[n+]2-c2ccc(I)cc2)cc1 [INT Cl^-, 2-(4-iodophenyl)-3-(4-nitrophenyl)-5-phenyl tetrazolium, reference compound] |  | 3 m mol L |  |
| COc1cc(-[n+]2nc(-c3ccc4c(c3)OCO4)nn2-c2nc(C(F)F)c(Cl)s2)cc(OC)c1OC [DCT BF4^-, 2-(4-difluoromethyl-5-chlorothiazol-2-yl)-3-(3,4,5-trimethoxyphenyl)-5-(3,4-methylenedioxyphenyl) tetrazolium] | < 16 m mol L | < 0.5 m mol L | solubility in methanol (in words) [1, 4]: only marginally soluble; solubility in water (in words) [1, 4]: only marginally soluble |
| COc1cc(-[n+]2nc(-c3ccc4c(c3)OCO4)nn2-c2nc(C(F)F)c(Cl)s2)cc(OC)c1OC [DCT EtSO3^-, 2-(4-difluoromethyl-5-chlorothiazol-2-yl)-3-(3,4,5-trimethoxyphenyl)-5-(3,4-methylenedioxyphenyl) tetrazolium] | > 600 m mol L | 26 m mol L |  |
| CN1CC[C@]23c4c5ccc(OCc6ccccc6)c4O[C@H]2[C@@H](O)C=C[C@H]3[C@H]1C5 [benzylmorphine, reference compound] |  |  | water solubility after conversion to alkyl sulphonic acid salt ([2]; U.S. Pat. No. 1,892,019, methane or ethanesulfonic acid): increased water solubility |
| COc1ccccc1-[n+]1nc(-c2ccc3c(c2)OCO3)nn1-c1nc(C(F)F)c(Cl)s1 [DCMT BuSO3^-, 2-(4-difluoromethyl-5-chlorothiazol-2-yl)-3-(2 methoxyphenyl)-5-(3,4-methylenedioxyphenyl) tetrazolium] | > 700 m mol L | 15 m mol L |  |
| COc1ccccc1-[n+]1nc(-c2ccc3c(c2)OCO3)nn1-c1nc(C(F)F)c(Cl)s1 [DCMT MeSO3^-, 2-(4-difluoromethyl-5-chlorothiazol-2-yl)-3-(2 methoxyphenyl)-5-(3,4-methylenedioxyphenyl) tetrazolium] | > 760 m mol L | 248 m mol L | solubility in methanol (in words) [1]: greatly enhanced; solubility in water (in words) [1]: greatly enhanced |
| COc1ccccc1-[n+]1nc(-c2ccc3c(c2)OCO3)nn1-c1nc(C(F)F)c(Cl)s1 [DCMT BF4^-, 2-(4-difluoromethyl-5-chlorothiazol-2-yl)-3-(2 methoxyphenyl)-5-(3,4-methylenedioxyphenyl) tetrazolium] | 12.9 m mol L | 2.7 m mol L |  |
| C=C1CC(C)C2C3Cc4ccc(O)cc4C2(CCN3CC2CCC2)C1 (stereo not drawn) [17-cyclobutylmethyl-3-hydroxy-862-methyl-6-methylene morphinane] |  |  | solubility on converting chloride salt to methanesulfonate ([2]; U.S. Pat. No. 4,334,071): enhancement of the solubility |
| COc1ccc(-c2nn(-c3nc4c(cc(OC)c5ccccc54)s3)[n+](-c3cc(OC)c(OC)c(OC)c3)n2)cc1 [MTM PrSO3^-, 2-(5-methoxynaphtho[1,2-d]thiazol-2-yl)-3-(3,4,5-trimethoxyphenyl)-5-(4-methoxyphenyl) tetrazolium] | 100 m mol L |  | solubility in methanol (in words) ([1]; listed as MTM propanesulfonate): substantially increased |
| COc1cc(-[n+]2nc(-c3ccc4c(c3)OCO4)nn2-c2nc(C(F)F)c(Cl)s2)cc(OC)c1OC [DCT BzSO3^-, 2-(4-difluoromethyl-5-chlorothiazol-2-yl)-3-(3,4,5 trimethoxyphenyl)-(5-(3,4-methylenedioxyphenyl)tetrazolium benzenesulfonate] | > 550 m mol L |  | tetrazolium salt extracted from the treated membrane into remaining aqueous solution [3]: 3 mM; solubility in methanol (in words) ([1]; listed as DCT benzenesulfonate): high methanol solubility |
| COc1cc(-[n+]2nc(-c3ccc4c(c3)OCO4)nn2-c2nc(C(F)F)c(Cl)s2)cc(OC)c1OC [DCT PrSO3^-, 2-(4-difluoromethyl-5-chlorothiazol-2-yl)-3-(3,4,5-trimethoxyphenyl)-5-(3,4-methylenedioxyphenyl) tetrazolium] | > 650 m mol L | 16 m mol L |  |
| COc1cc(-[n+]2nc(-c3ccc4c(c3)OCO4)nn2-c2nc(C(F)F)c(Cl)s2)cc(OC)c1OC [DCT MeSO3^-, 2-(4-difluoromethyl-5-chlorothiazol-2-yl)-3-(3,4,5-trimethoxyphenyl)-5-(3,4-methylenedioxyphenyl) tetrazolium] | > 500 m mol L | 73 m mol L | solubility in methanol (in words) ([1]; listed as DCT methanesulfonate): highly soluble; solubility in water (in words) ([1]; listed as DCT methanesulfonate): highly soluble |
| COc1ccc(-c2nn(-c3nc4c(cc(OC)c5ccccc54)s3)[n+](-c3cc(OC)c(OC)c(OC)c3)n2)cc1 [MTM NO3^-, 2-(5-methoxynaphtho[1,2-d]thiazol-2-yl)-3-(3,4,5-trimethoxyphenyl)-5-(4-methoxyphenyl) tetrazolium] | 7.6 m mol L |  |  |
| COc1cc(-[n+]2nc(-c3ccc4c(c3)OCO4)nn2-c2nc(C(F)F)c(Cl)s2)cc(OC)c1OC [DCT NO3^-, 2-(4-difluoromethyl-5-chlorothiazol-2-yl)-3-(3,4,5-trimethoxyphenyl)-5-(3,4-methylenedioxyphenyl) tetrazolium] | 22 m mol L | 2 m mol L | solubility in methanol (in words) ([1]; listed as DCT nitrate): only marginally soluble; solubility in water (in words) ([1]; listed as DCT nitrate): only marginally soluble |
| COc1ccccc1-[n+]1nc(-c2ccc3c(c2)OCO3)nn1-c1nc(C(F)F)c(Cl)s1 [DCMT Br^-, 2-(4-difluoromethyl-5-chlorothiazol-2-yl)-3-(2 methoxyphenyl)-5-(3,4-methylenedioxyphenyl) tetrazolium] | 24 m mol L | < 1 m mol L |  |
| COc1ccc(-c2nn(-c3nc4c(cc(OC)c5ccccc54)s3)[n+](-c3cc(OC)c(OC)c(OC)c3)n2)cc1 [MTM BzSO3, 2-(5-methoxynaphtho[1,2-d]thiazol-2-yl)-3-(3,4,5-trimethoxyphenyl)-5-(4-methoxyphenyl) tetrazolium] | 19 m mol L |  | solubility in methanol (in words) ([1]; listed as MTM benzenesulfonate): substantially greater than the nitrate |
| COc1ccccc1-[n+]1nc(-c2ccc3c(c2)OCO3)nn1-c1nc(C(F)F)c(Cl)s1 [DCMT PeSO3^-, 2-(4-difluoromethyl-5-chlorothiazol-2-yl)-3-(2 methoxyphenyl)-5-(3,4-methylenedioxyphenyl) tetrazolium] | > 700 m mol L | 2.6 m mol L |  |
| COc1ccc(-c2nn(-c3nc4c(cc(OC)c5ccccc54)s3)[n+](-c3cc(OC)c(OC)c(OC)c3)n2)cc1 [MTM MeSO3^-, 2-(5-methoxynaphtho[1,2-d]thiazol-2-yl)-3-(3,4,5-trimethoxyphenyl)-5-(4-methoxyphenyl) tetrazolium] | 48 m mol L |  | solubility in methanol (in words) ([1]; listed as MTM methanesulfonate): substantially increased |
